Experimental data from ChEMBL document CHEMBL1129018, “Asymmetric synthesis of cis-()-(2R4S)-4-(phosphonomethyl)-2-piperidinecarboxylic acid, a potent NMDA receptor antagonist” (Bioorg Med Chem Lett, 1996).

Assay: Compound was tested for binding activity against N-methyl-D-aspartic acid(NMDA) receptor in rat brain crude synaptic membranes
Assay type: cell membranes

Row | IC50 [µM] | Compound
1 | 10 | O=C(O)[C@@H]1C[C@H](CP(=O)(O)O)CCN1 (stereo in doubt) [SELFOTEL]
2 | 0.069 | O=C(O)[C@@H]1C[C@H](CP(=O)(O)O)CCN1 (stereo in doubt; form 1) [SELFOTEL]
3 | 0.029 | O=C(O)[C@@H]1C[C@H](CP(=O)(O)O)CCN1 (stereo in doubt; form 2) [SELFOTEL]
